Laboratory results from PMC2664537 (Journal of medicinal chemistry, 2008).

What was measured:
[1] = molecular target: rhodopsin in urea-washed rod outer-segment membranes (MII state, R*) (Bos taurus, UniProt P02699); assay: extra MII stabilization assay; assay type: biochemical, bovine
[2] = solubility observed during assay preparation; assay type: physicochemical; conditions: for solubility in buffer with 5% DMSO: after being dissolved in DMSO initially
[3] = molecular target: R*-Gt interaction (photoactivated rhodopsin / transducin) (Bos taurus, UniProt P02699); assay: R*-Gt binding and release assay; set-up: species or system bovine
Sequence of R*-Gt interaction (photoactivated rhodopsin / transducin) (P02699 whole entry): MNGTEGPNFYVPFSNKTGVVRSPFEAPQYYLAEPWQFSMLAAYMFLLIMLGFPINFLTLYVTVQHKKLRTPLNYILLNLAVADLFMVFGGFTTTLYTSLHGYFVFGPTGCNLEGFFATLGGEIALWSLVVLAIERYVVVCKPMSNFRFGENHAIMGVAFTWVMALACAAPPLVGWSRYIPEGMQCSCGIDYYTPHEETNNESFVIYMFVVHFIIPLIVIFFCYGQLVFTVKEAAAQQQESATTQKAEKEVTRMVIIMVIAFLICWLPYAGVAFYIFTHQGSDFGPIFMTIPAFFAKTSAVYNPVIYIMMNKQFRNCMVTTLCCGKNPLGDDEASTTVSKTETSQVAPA

Sequence of rhodopsin in urea-washed rod outer-segment membranes (MII state, R*) (P02699 whole entry): as above

Q: For `CC1(C)[C@@H](O)CC[C@]2(C)[C@H]3C(=O)C=C4[C@@H]5C[C@@](C)(C(=O)O)CC[C@]5(C)CC[C@@]4(C)[C@]3(C)CC[C@@H]12` [Compound 12], which “activity in extra MII assay using pure compound” value ([1]; pure compound) is on record?
A: neither showed significant activity

Q: Which “solubility in buffer with 5% DMSO” value [2] does the source give for `C[C@H]1[C@H](C)CC[C@]2(C(=O)O)CC[C@]3(C)C(=CC[C@@H]4[C@@]5(C)C[C@@H](O)[C@H](O)[C@@](C)(CO)[C@@H]5[C@H](O)C[C@]43C)[C@H]12` [Compound 2, madecassic acid] here?
A: soluble

Q: With `C[C@]12CC[C@H]3[C@@H](CCC4=CC(=O)CC[C@@]43C)[C@@H]1CC[C@@H]2C(=O)COS(=O)(=O)c1ccc(Br)cc1` [Compound 3] as the molecule, how does the “solubility in buffer with 3% DMSO/3% butanol” value ([2]; dissolved in DMSO/butanol solution, then buffer added) read?
A: remained soluble

Q: Which IC50 [3] does the source give for `CC1(C)CC[C@]2(C(=O)O)CC[C@]3(C)C(=CC[C@@H]4[C@@]5(C)C[C@H](O)[C@H](O)[C@@](C)(C(=O)O)[C@@H]5CC[C@]43C)[C@@H]2C1` [Compound 16, medicagenic acid] here?
A: 2000 µM

Q: And the “solubility in buffer with 5% DMSO” value [2]?
A: soluble

Q: What about the EC50 [1] of the same molecule?
A: 350 µM
